Measurements as given in patent US4692447A, “Tricyclic dihydropyridazinones and pharmaceutical compositions containing them” (Boehringer Biochemia Robin, S.p.A., priority 1984, dated 1987).

Tests used:
[1] = acute toxicity in mice (LD50); conditions: mouse, in vivo
Experimental: First of all, the compounds of the present invention are characterized by a low acute toxicity and a very favourable therapeutic index.
The compounds were administered by oral and intraperitoneal route.

[2] = system: sudden death induced by arachidonate in mice; experiment: protection against sudden death induced by arachidonate in mice; type: in vivo; conditions: oral; for increase of protection as compared with ASA: screening dosage 20 mg/kg vs ASA 200 mg/kg; for protection against sudden death compared with ASA: 20 mg/kg vs ASA 200 mg/kg
Text: The same compounds from BBR-1507 to BBR-1513, given orally, protected against sudden death induced by arachidonate in mice.

[3] = system: SHR Rats; experiment: hypotensive effect in conscious spontaneously hypertensive rats (Table 2); type: in vivo; design: ΔBP sist: unit not given here
Text: (§1) As it is shown in Table 2, the decrease of the systolic median blood pressure was long lasting and the length of the effect was dose-related.

[4] = system: Normotensive rats; experiment: hypotensive effect in conscious normotensive rats (Table 2); type: in vivo; conditions: os
Text: as §1

[5] = system: conscious normal and in spontaneously hypertensive rats; experiment: hypotensive effect in conscious normal and spontaneously hypertensive rats; type: in vivo
Experimental: This is particularly the case of compounds like as BBR-1511, 1513 and 1509 which show only a little (5-8 mmHg) even if prolonged hypotensive effect when tested in conscious normal and in spontaneously hypertensive rats at doses ranging from 100 to 200 mg/kg by intraperitoneal route.

[6] = system: paw edema induced by carrageenin; experiment: paw edema induced by carrageenin; type: in vivo; conditions: 20, 60 and 200 mg/kg; for reducing the paw edema induced by carrageenin: oral route; for activity in paw edema relative to ASA: oral, more active than ASA
[7] = system: platelet-rich plasma (PRP) from guinea pigs; experiment: in vitro platelet aggregation in platelet-rich plasma, Born aggregometer; type: cell-based; conditions: vs ASA
[8] = system: sudden death induced by arachidonate in mice; experiment: protection against sudden death induced by arachidonate in mice; conditions: vs ASA
[9] = intraperitoneal and oral, conscious normotensive and SHR rats, qualitative
[10] = conscious normal and SHR rats, 100 to 200 mg/kg, intraperitoneal, prolonged

Row | Compound | LD50 ([1]; ip) [mg/kg] | LD50 ([1]; po, os) [mg/kg] | increase of protection as compared with ASA [2] | duration ([3]; os, 3.125 mg/kg) [h] | ΔBP sist ([3]; os, 3.125 mg/kg) | duration ([3]; os, 6.25 mg/kg) [h] | ΔBP sist ([3]; os, 6.25 mg/kg) | duration ([3]; os, 12.5 mg/kg) [h] | ΔBP sist ([3]; os, 12.5 mg/kg) | duration ([4]; 12.5 mg/kg) [h] | ΔBP sist ([4]; 12.5 mg/kg) | hypotensive effect [5, 9] | reducing the paw edema induced by carrageenin [6] | activity in paw edema relative to ASA [6] | inhibiting platelet aggregation in vitro compared with ASA [7] | protection against sudden death compared with ASA [2] | hypotensive effect [5, 10] | inhibiting platelet aggregation in vivo compared with ASA [8] | also measured
1 | CC(=O)Nc1ccc2c(c1)CC1CC(=O)NN=C21 (racemic) [BBR-1507, dl-7-acetylamino-4,4a-dihydro-5H-indeno-[1,2-c]pyridazin-3-one] | 310 | > 1000 | 20-30% | 3 | -25 | > 4 | -50 | 5.6 | -58 | 3 | -26 | more evident and prolonged hypotensive effect | effective in reducing the paw edema | 1.5-2 times | – | – | – | – | duration ([3]; i.p., 50 mg/kg): > 4 h; ΔBP sist ([3]; i.p., 50 mg/kg): -55; duration ([3]; os, 1.56 mg/kg): 1.5 h; ΔBP sist ([3]; os, 1.56 mg/kg): -18; duration ([4]; 6.25 mg/kg): 3 h; ΔBP sist ([4]; 6.25 mg/kg): -8
2 | CC(=O)Nc1ccc2c(c1)CCC1CC(=O)NN=C21 (racemic) [BBR-1508, dl-8-acetylamino-4,4a,5,6-tetrahydro-2H-benzo(h)-cinnolin-3-one] | 360 | > 1000 | 40% | 2 | -30 | 4 | -30 | 4.6 | -55 | 4 | -20 | more evident and prolonged hypotensive effect | effective in reducing the paw edema | 1.5-2 times | – | – | – | – | duration ([3]; i.p., 12.5 mg/kg): 3 h; ΔBP sist ([3]; i.p., 12.5 mg/kg): -50; duration ([3]; i.p., 25 mg/kg): 3 h; ΔBP sist ([3]; i.p., 25 mg/kg): -90; duration ([3]; os, 25 mg/kg): 4.6 h; ΔBP sist ([3]; os, 25 mg/kg): -65; ΔBP sist ([4]; 3.125 mg/kg): inactive; duration ([4]; 6.25 mg/kg): 1.5 h; ΔBP sist ([4]; 6.25 mg/kg): -8; duration ([4]; 25 mg/kg): 4 h; ΔBP sist ([4]; 25 mg/kg): -48
3 | CC(=O)Nc1ccc2c(c1)CCCC1CC(=O)NN=C21 (racemic) [BBR-1509, dl-8-acetylamino-2,4,4a,5,6,7-hexahydro-3H-benzo[6,7]-cyclohepten[1,2-c]-pyridazin-3-one] | > 1000 | > 1000 | – | – | – | – | – | – | – | – | – | – | inactive | – | at least equiactive as ASA | equiactive as acetylsalicylic acid (ASA) | 5-8 mmHg | at least equiactive as ASA | –
4 | Nc1ccc2c(c1)CCC1CC(=O)NN=C21 (racemic) [BBR-1510, dl-8-amino-4,4a,5,6-tetrahydro-2H-benzo(h)-cinnolin-3-one] | 610 | > 1000 | 20-30% | 2 | -46 | 3.4 | -40 | > 3 | -60 | > 6 | -28 | more evident and prolonged hypotensive effect | effective in reducing the paw edema | 1.5-2 times | – | – | – | – | duration ([3]; i.p., 6.25 mg/kg): 1 h; ΔBP sist ([3]; i.p., 6.25 mg/kg): -55; duration ([3]; i.p., 12.5 mg/kg): > 4 h; ΔBP sist ([3]; i.p., 12.5 mg/kg): -80; duration ([3]; os, 1.56 mg/kg): 1 h; ΔBP sist ([3]; os, 1.56 mg/kg): -48
5 | CCCCN1N=C2c3ccc(N)cc3CCC2CC1=O (racemic) [BBR-1511] | 1000 | > 1000 | – | – | – | – | – | – | – | – | – | – | – | – | – | equiactive as acetylsalicylic acid (ASA) | 5-8 mmHg | – | –
6 | Nc1ccc2c(c1)CC1CC(=O)NN=C21 (racemic) [BBR-1512, dl-7-amino-4,4a-dihydro-5H-indeno[1,2-c]-pyridazin-3-one] | 200 | 400 | 20-30% | – | – | – | – | – | – | – | – | – | – | – | – | – | – | – | –
7 | Nc1ccc2c(c1)CCCC1CC(=O)NN=C21 (racemic) [BBR-1513, dl-9-amino-2,4,4a,5,6,7-hexahydro-3H-benzo-[6,7]-cyclohepten[1,2-c]-pyridazin-3-one] | 483 | 700 | – | – | – | – | – | – | – | – | – | – | scarcely effective | – | at least equiactive as ASA | equiactive as acetylsalicylic acid (ASA) | 5-8 mmHg | at least equiactive as ASA | –
8 | O=C1CC2CCc3cc(NC(=O)CCl)ccc3C2=NN1 (racemic) [BBR-1514, dl-8-chloroacetylamino-4,4a,5,6-tetrahydro-2H-benzo(h)-cinnolin-3-one] | > 1000 | > 1000 | – | – | – | – | – | – | – | – | – | – | inactive | – | at least equiactive as ASA | – | – | at least equiactive as ASA | –
